Measured values as given in patent publication US9284283B2, “Macrocyclic compounds for modulating IL-17” (ENSEMBLE THERAPEUTICS CORPORATION, priority 2012, dated 2016).

molecular target: T1, biotinylated human IL-17 (binding to IL17R/Fc) (Homo sapiens, UniProt Q16552); assay: IL-17 competition ELISA II (captured IL17R/Fc, biotinylated IL-17)
T1 construct: purchased R&D Systems 317-ILB (IL-17, biotinylated); 177-IR (IL17R/Fc)
T1 sequence (Q16552 20-155 limits assumed): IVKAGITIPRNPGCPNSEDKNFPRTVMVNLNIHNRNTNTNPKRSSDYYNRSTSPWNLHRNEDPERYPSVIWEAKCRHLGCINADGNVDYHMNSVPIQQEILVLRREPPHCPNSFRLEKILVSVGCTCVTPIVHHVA
Outline: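 Competition read-out: absorbance at 450 nm after streptavidin-HRP/TMB detection, fitted to a 4-parameter logistic model bounded by no-competitor and blank wells to give IC50. Compound was serially diluted 5-fold from 1 μM alongside 20 nM (stock) biotinylated IL-17 on IL17R/Fc (10 nM) captured via goat anti-human IgG, 30 min at room temperature.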

`O=C(Cc1ccccc1)N[C@@H](Cc1ccccc1Cl)C(=O)Nc1ccc(C[C@H]2NC(=O)CC3(CCCC3)CC(=O)OCCNCCNC(=O)[C@@H](Cc3ccccc3)NC2=O)cc1` [Compound 444] and `CN1CCNCCOC(=O)CC2(CCCC2)CC(=O)N[C@H](Cc2ccc(NC(=O)[C@H](Cc3ccccc3Cl)NC(=O)Cc3ccccc3)cc2)C(=O)N[C@H](Cc2ccccc2)C1=O` [Compound 445] cannot be ordered by IC50: less than 100 nM for the first, less than 100 nM for the second.

`C[C@H]1NC(=O)[C@@H](Cc2ccc(NC(=O)[C@H](Cc3ccccc3Cl)NC(=O)OCc3ccccc3)cc2)NC(=O)CC2(CCCC2)CC(=O)N(C)CCN(C)CCN(C)C1=O` [Compound 587] and `COC(=O)N[C@@H](Cc1ccccc1Cl)C(=O)Nc1ccc(C[C@H]2NC(=O)CC3(CCCC3)CC(=O)N(C)CCCCCN(C)C(=O)[C@@H](C)NC2=O)cc1` [Compound 570] cannot be ordered by IC50: less than 100 nM for the first, less than 100 nM for the second.

`CN(C)CCCC[C@H]1NC(=O)[C@@H](Cc2ccc(NC(=O)[C@H](Cc3ccccc3Cl)NC(=O)C(F)(F)c3ccccc3)cc2)NC(=O)CC2(CCCC2)CC(=O)N(C)CCOCCN(C)C1=O` [Compound 641] and `CN1CCOCCN(C)C(=O)[C@@H](Cc2cccnc2)NC(=O)[C@@H](Cc2ccc(NC(=O)[C@H](Cc3ccccc3Cl)NC(=O)C(F)(F)c3ccccc3)cc2)NC(=O)CC2(CCCC2)CC1=O` [Compound 638] cannot be ordered by IC50: less than 100 nM for the first, less than 100 nM for the second.

`O=C1CC2(CCCC2)CC(=O)N[C@H](Cc2ccc(NC(=O)[C@H](Cc3ccccc3Cl)NC(=O)Cc3cccc(O)c3)cc2)C(=O)NCCNCCN1` [Compound 466] and `O=C1CC2(CCCC2)CC(=O)N[C@H](Cc2ccc(NC(=O)[C@H](Cc3ccccc3Cl)NC(=O)Cc3ccc(CO)cc3)cc2)C(=O)NCCCN1` [Compound 401] cannot be ordered by IC50: less than 100 nM for the first, less than 100 nM for the second.

Compared with `O=C1CC2(CCCC2)CC(=O)N[C@H](Cc2ccc(NC(=O)[C@H](Cc3ccccc3Cl)NC(=O)c3ccc(F)cc3O)cc2)C(=O)NCCOCCOCCN1` [Compound 538], `O=C1CC2(CCCC2)CC(=O)N[C@H](Cc2ccc(NC(=O)[C@H](Cc3ccccc3Cl)NC(=O)[C@@H](O)c3ccccc3)cc2)C(=O)NCCOCCOCCN1` [Compound 544] is lower in IC50: 100 to 1000 nM for the first, less than 100 nM for the second. The second is the more potent here.

First: O=C1CNC(=O)[C@@H](Cc2ccc(NC(=O)[C@H](Cc3ccccc3Cl)NC(=O)C(F)(F)c3ccccc3)cc2)NC(=O)CC2(CCCC2)CC(=O)OCCCCCN1 [Compound 674]
Second: O=C1CC2(CCCC2)CC(=O)N[C@H](Cc2ccc(NC(=O)[C@H](Cc3ccccc3Cl)NC(=O)C(F)(F)c3ccccc3)cc2)C(=O)NCCN2CCN(CCN1)CC2 [Compound 531]
The IC50 of the first is lower: less than 100 nM for the first, 100 to 1000 nM for the second. The first is the more potent here.

First: CC(C)(C)[C@H]1NC(=O)[C@@H](Cc2ccc(NC(=O)[C@H](Cc3ccccc3Cl)NC(=O)C3(c4ccc(F)cc4)CC3)cc2)NC(=O)CC2(CCCC2)CC(=O)NCCCCCNC1=O [Compound 471]
Second: O=C1CC2(CCCC2)CC(=O)N[C@H](Cc2ccc(NC(=O)[C@H](Cc3ccccc3Cl)NC(=O)C3(c4ccc(F)cc4)CC3)cc2)C(=O)N[C@H](CO)C(=O)NCCCCCN1 [Compound 482]
The IC50 of the first is higher: 100 to 1000 nM for the first, less than 100 nM for the second. The second is the more potent here.

Compared with `NCCCC[C@H]1NC(=O)[C@@H](Cc2ccc(NC(=O)[C@H](Cc3ccccc3Cl)NC(=O)Cc3ccccc3)cc2)NC(=O)CC2(CCCC2)CC(=O)NCCCCCNC1=O` [Compound 432], `O=C1CNC(=O)[C@@H](Cc2ccc(NC(=O)[C@H](Cc3ccccc3Cl)NCc3ccccc3)cc2)NC(=O)CC2(CCCC2)CC(=O)NCCCCCN1` [Compound 503] is higher in IC50: less than 100 nM for the first, 1000 to 10000 nM for the second.

`C[C@H]1NC(=O)[C@@H](Cc2ccc(NC(=O)[C@H](Cc3ccccc3Cl)NC(=O)Cc3ccc(F)cc3)cc2)NC(=O)CC2(CCCC2)NC(=O)CCCCCNC1=O` [Compound 617] and `C[C@H]1NC(=O)[C@@H](Cc2ccc(NC(=O)[C@H](Cc3ccccc3Cl)NC(=O)Cc3ccc(F)cc3)cc2)NC(=O)CN(C)CC(=O)NCCCCCNC1=O` [Compound 558] cannot be ordered by IC50: less than 100 nM for the first, less than 100 nM for the second.

`CN1CCNC(=O)CC2(CCCC2)CC(=O)N[C@H](Cc2ccc(NC(=O)[C@H](Cc3ccccc3Cl)NC(=O)NCc3ccccc3)cc2)C(=O)NCC1` [Compound 485] and `CN1CCNC(=O)CC2(CCCC2)CC(=O)N[C@H](Cc2ccc(NC(=O)[C@H](Cc3ccccc3Cl)NC(=O)Cc3ccc(CO)cc3)cc2)C(=O)NCC1` [Compound 402] cannot be ordered by IC50: less than 100 nM for the first, less than 100 nM for the second.

`O=C(Cc1ccc(F)cc1)N[C@@H](Cc1ccccc1Cl)C(=O)Nc1ccc(C[C@H]2NC(=O)CC3(CCCC3)CC(=O)OCCCC/C=C/CNC2=O)cc1` [Compound 500] and `CN1CCOCCOCCN(C)C(=O)[C@@H](Cc2ccc(NC(=O)[C@H](Cc3ccccc3Cl)NC(=O)Cc3ccc(F)cc3)cc2)NC(=O)CC2(CCCC2)CC1=O` [Compound 590] cannot be ordered by IC50: less than 100 nM for the first, less than 100 nM for the second.

`O=C1CC2(CCCC2)CC(=O)N[C@H](Cc2ccc(NC(=O)[C@H](Cc3ccccc3Cl)NC(=O)c3ccccc3)cc2)C(=O)NCCCCCCCCN1` [Compound 366] and `O=C1CC2(CCCC2)CC(=O)N[C@H](Cc2ccc(NC(=O)[C@H](Cc3ccccc3Cl)NC(=O)c3cccnc3)cc2)C(=O)NCCCCN1` [Compound 420] fall in the same range of IC50: 100 to 1000 nM for the first, 100 to 1000 nM for the second.

`C[C@H]1NC(=O)[C@@H](Cc2ccc(NC(=O)[C@H](Cc3ccccc3Cl)NC(=O)c3cncc4ccccc34)cc2)NC(=O)CC2(CCCC2)CC(=O)NCCCCCNC1=O` [Compound 429] and `CC(C)OC(=O)N[C@@H](Cc1ccccc1Cl)C(=O)Nc1ccc(C[C@H]2NC(=O)CC3(CCCC3)CC(=O)NCCCCCNC(=O)[C@@H](C)NC2=O)cc1` [Compound 578] cannot be ordered by IC50: less than 100 nM for the first, less than 100 nM for the second.

First: O=C1CNC(=O)[C@@H](Cc2ccc(NC(=O)[C@@H](NC(=O)c3cncc4ccccc34)C3CCCCC3)cc2)NC(=O)CC2(CCCC2)CC(=O)NCCCCCN1 [Compound 450]
Second: O=C1CC2(CCCC2)CC(=O)N[C@H](Cc2ccc(NC(=O)[C@@H](NC(=O)c3ccncc3)C3CCCCC3)cc2)C(=O)N[C@H](Cc2ccccn2)C(=O)NCCCCCN1 [Compound 436]
The IC50 of the first is lower: less than 100 nM for the first, 100 to 1000 nM for the second. The first is the more potent here.

`O=C1CNC(=O)[C@@H](Cc2ccc(NC(=O)[C@@H](NC(=O)CC3CCCCC3)C3CCCCC3)cc2)NC(=O)CC2(CCCC2)CC(=O)NCCCCCN1` [Compound 395] and `CN(C)c1ccc(CC(=O)N[C@H](C(=O)Nc2ccc(C[C@H]3NC(=O)CC4(CCCC4)CC(=O)NCCOCCOCCNC3=O)cc2)C2CCCCC2)cc1` [Compound 596] cannot be ordered by IC50: less than 100 nM for the first, less than 100 nM for the second.

`CN1CCCCCOC(=O)CC2(CCCC2)CC(=O)N[C@H](Cc2ccc(NC(=O)[C@@H](NC(=O)C(F)(F)c3ccccc3)C3CCCCC3)cc2)C(=O)NCC1=O` [Compound 679] and `CN1CCOCCOCCNC(=O)[C@@H](Cc2ccc(NC(=O)[C@H](CC3CCC3)NC(=O)C(F)(F)c3ccccc3)cc2)NC(=O)CC2(CCCC2)CC1=O` [Compound 615] cannot be ordered by IC50: less than 100 nM for the first, less than 100 nM for the second.

`COC(=O)c1coc(N[C@@H](Cc2ccccc2Cl)C(=O)Nc2ccc(C[C@H]3NC(=O)CC4(CCCC4)CC(=O)N(C)CCOCCN(C)C(=O)[C@@H](C)NC3=O)cc2)n1` [Compound 666] and `C[C@H]1NC(=O)[C@@H](Cc2ccc(NC(=O)[C@H](Cc3ccccc3Cl)NC(=O)Cc3ccc(F)cc3)cc2)N(C)C(=O)CC2(CCCC2)CC(=O)NCCCCCNC1=O` [Compound 486] cannot be ordered by IC50: less than 100 nM for the first, less than 100 nM for the second.

First: O=C(O)CC[C@H]1NC(=O)[C@@H](Cc2ccc(NC(=O)[C@H](Cc3ccccc3Cl)NC(=O)C3(c4ccc(F)cc4)CC3)cc2)NC(=O)CC2(CCCC2)CC(=O)NCCCCCNC1=O [Compound 472]
Second: Cc1ccc(C[C@H](NC(=O)C2(c3ccc(F)cc3)CC2)C(=O)Nc2ccc(C[C@H]3NC(=O)CC4(CCCC4)CC(=O)NCCOCCOCCNC3=O)cc2)c(C)c1 [Compound 510]
The IC50 of the first is lower: less than 100 nM for the first, 100 to 1000 nM for the second. The first is the more potent here.
